# Values of other authors in US20100035949A1 (priority 2006, published 2010).
# What was measured:
# [1] = humans
# [2] = pH dependent; decreases as pH increases from acidic to neutral
smiles,measurement,setting,value
"CCCCC(=O)N(Cc1ccc(-c2ccccc2-c2nnn[nH]2)cc1)[C@H](C(=O)O)C(C)C [valsartan, (S)-N-valeryl-N-{[2′-(1H-tetrazole-5-yl)-biphenyl4-yl]-methyl}-valine]",oral bioavailability,[1]; known dosage forms,about 25%
same,"oral bioavailability, range",[1]; wide range with large inter- and intra-subject variabilities,25-40%
same,permeability,[2],low
